This is an account of results in patent publication US20090098115A1, “Cell lines and animal models of HER2 expressing tumors” (priority 2006, published 2009).

For assay [1], the system named is BT-474 cells. Nature of the assay: In vitro cell proliferation assay (Cell Titer-Glo), BT-474. The assay is classed as cell-based, human. As to conditions: BT-474, 0.0001 ug/ml to 10 ug/ml, 72 h (FIGS. 7A, 8A). The procedure: (§1) BT-474 and BT-474EE1 cells were plated in 96-well microtiter plates and incubated overnight at 37° in a humidified atmosphere of 5% CO2. […] After incubation for 72 h, Cell Titer-Glo reagent (Promega, Madison, Wis.) was added to the wells, and after a 10-min incubation at room temperature, the luminescent signal was recorded.

Assay [2] concerns BT-474EEI cells. The assay is described as follows: In vitro cell proliferation assay (Cell Titer-Glo), BT-474EEI. The assay is classed as cell-based, human. The note with it: 0.0001 ug/ml to 10 ug/ml, 72 h (FIGS. 7B, 8B). As to the method:
as §1

Structures are written as SMILES.

On to `C#Cc1cccc(Nc2ncnc3cc(OCCOC)c(OCCOC)cc23)c1` [Tarceva, Erlotinib], for which the figures for the cell proliferation result in assay [1] and in assay [2] were “decreased with high doses” and “reduced at high concentrations”, respectively.
